Like-named read-outs stand apart in the source and are kept apart here.
How the values were obtained:
[1] = target: T1, Keap1 Kelch domain (321-609) / TAMRA-labeled 16mer NRF2 peptide (ETGE motif) (Homo sapiens, UniProt Q14145); assay: NRF2-Keap1 FP Assay (Keap1 Kelch fluorescence polarization); type: binding; conditions: 20 nM Keap1 (321-609), 8 nM Tamra labeled peptide
T1 construct: the Kelch domain (321-609) of Keap1 is used
Summary of the method: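 Compound dilutions (3-fold) were incubated 1 hr at room temperature with 20 nM Keap1 Kelch (321-609) and 8 nM TAMRA-labeled ETGE 16mer peptide. Buffer was 50 mM Tris pH 8.0, 100 mM NaCl, 5 mM MgCl2, 1 mM DTT, 2 mM CHAPS, 0.005% BSA. Fluorescence polarization (mP) was normalized to controls and fitted with a four-parameter equation to give pIC50.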

[2] = target: T2, full length Keap1 protein / full length NRF2 protein (Homo sapiens, UniProt Q14145); assay: NRF2-Keap1 TR-FRET Assay; type: binding; conditions: 25 nM Keap1-FlagHis and 50 nM biotin-NRF2 added
T2 construct: full length NRF2 protein and full length Keap1 protein (Keap1 exists a dimer) are used; His
T2 sequence (Q14145 whole entry): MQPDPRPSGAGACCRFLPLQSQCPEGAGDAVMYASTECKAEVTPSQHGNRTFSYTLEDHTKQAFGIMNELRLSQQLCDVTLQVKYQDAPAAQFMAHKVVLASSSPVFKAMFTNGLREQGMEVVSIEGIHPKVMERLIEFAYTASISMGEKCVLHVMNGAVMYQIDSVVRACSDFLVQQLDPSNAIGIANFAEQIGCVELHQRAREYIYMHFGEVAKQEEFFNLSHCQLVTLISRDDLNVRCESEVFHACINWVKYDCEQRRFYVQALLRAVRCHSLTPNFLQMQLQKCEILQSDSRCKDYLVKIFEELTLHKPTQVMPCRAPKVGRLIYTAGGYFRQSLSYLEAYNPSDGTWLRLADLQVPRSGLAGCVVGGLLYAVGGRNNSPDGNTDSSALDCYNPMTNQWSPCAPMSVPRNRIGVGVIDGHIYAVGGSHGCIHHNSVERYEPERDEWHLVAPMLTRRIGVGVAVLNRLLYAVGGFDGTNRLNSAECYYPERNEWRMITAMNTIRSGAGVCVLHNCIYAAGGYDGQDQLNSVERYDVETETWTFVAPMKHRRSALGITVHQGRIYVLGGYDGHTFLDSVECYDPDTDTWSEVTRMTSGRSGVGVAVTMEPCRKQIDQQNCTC
Summary of the method: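 Full-length Keap1-FlagHis preincubated with compound 2.25 h at 37 °C, then biotin-NRF2 added for 1.25 h at 4 °C, in Tris pH 8.0 with MgCl2, NaCl, BSA, DTT, CHAPS. TR-FRET 665/615 nm ratio normalised to with- and without-protein 1% DMSO controls; pIC50 from four-parameter fit.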

[3] = tested on: NQO1 specific enzyme activity in BEAS-2B cells (marker for NRF2 activation); assay: BEAS-2B NQO1 MTT Assay; type: cell-based; conditions: Homo sapiens, compound incubated 48 hours, read-out: EC50 (NQO1 specific enzyme activity induction)
Summary of the method: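 BEAS-2B cells treated with compound for 48 h at 37 °C, then lysed; NQO1 activity in lysates measured kinetically by MTT reduction at A570 over 30 min. pEC50 from 3-parameter fit of ΔOD/min versus log concentration; lysate also taken for Cell Titer Glo.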

T1 sequence (Q14145 321-609): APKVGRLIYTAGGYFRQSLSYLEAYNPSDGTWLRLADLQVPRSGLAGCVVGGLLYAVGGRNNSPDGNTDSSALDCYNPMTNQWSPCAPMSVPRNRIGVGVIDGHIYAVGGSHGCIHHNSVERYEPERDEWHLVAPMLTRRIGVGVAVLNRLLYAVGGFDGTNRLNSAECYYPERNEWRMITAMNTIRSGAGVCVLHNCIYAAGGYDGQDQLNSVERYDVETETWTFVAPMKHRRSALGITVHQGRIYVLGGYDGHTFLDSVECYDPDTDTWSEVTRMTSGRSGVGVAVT

Q: What does the source list for `CC(Oc1cccc(-c2cccc(-n3ncc(C(=O)O)c3C3CC3)c2)c1)C1CCCCC1` (stereo not drawn) [Example 60, 1-(3′-(1-Cyclohexylethoxy)-[1,1′-biphenyl]-3-yl)-5-cyclopropyl-1H-pyrazole-4-carboxylic Acid]?
A: IC50 [1]: 1000 to 10000 nM; IC50 [2]: 10000 to 100000 nM; EC50 [3]: 1000 to 10000 nM

Q: Which IC50 [1] does the source give for `Cn1cc(C2CC2c2c(C(=O)O)cnn2-c2cccc(-c3cccc(OC(C)(C)C)c3)c2)nn1` (stereo not drawn) [Example 166, 1-(3′-(tert-Butoxy)-[1,1′-biphenyl]-3-yl)-5-(2-(1-methyl-1H-1,2,3-triazol-4-yl)cyclopropyl)-1H-pyrazole-4-carboxylic acid] here?
A: The IC50 was 10 to 100 nM.

Q: And the IC50 [2]?
A: The IC50 was 100 to 1000 nM.

Q: And the EC50 [3]?
A: The EC50 was 100 to 1000 nM.

Q: How did the IC50 [1] turn out when `CCCN(CC1CC1)C(=O)c1cccc(-c2cccc(-n3ncc(C(=O)O)c3C3CC3)c2)c1C` [Example 16, 5-Cyclopropyl-1-(3-{3-[(cyclopropylmethyl)(propyl)carbamoyl]-2-methylphenyl}phenyl)-1H-pyrazole-4-carboxylic Acid] was run?
A: Its IC50 is 100 to 1000 nM.

Q: And the IC50 [2]?
A: The IC50 was 1000 to 10000 nM.

Q: And the EC50 [3]?
A: Its EC50 is 1000 to 10000 nM.

Q: For `Cc1ccnn1-c1cccc(-c2cccc(-n3ncc(C(=O)O)c3C3CC3)c2)c1F` [Example 39, 5-cyclopropyl-1-{3-[2-fluoro-3-(5-methyl-1H-pyrazol-1-yl)phenyl]phenyl}-1H-pyrazole-4-carboxylic Acid], which IC50 [1] is on record?
A: The IC50 was 100 to 1000 nM.

Q: What about the IC50 [2] of the same compound?
A: Its IC50 is 1000 to 10000 nM.

Q: What about the EC50 [3] of the same compound?
A: Its EC50 is 1000 to 10000 nM.

Q: Which IC50 [1] does the source give for `CCCN(CC1CC1)C(=O)c1cccc(-c2cccc(-n3ncc(C(=O)O)c3C3CC3)c2)c1Cl` [Example 15, 1-(3-{2-Chloro-3-[(cyclopropylmethyl)(propyl)carbamoyl]phenyl}phenyl)-5-cyclopropyl-1H-pyrazole-4-carboxylic Acid] here?
A: Its IC50 is 100 to 1000 nM.

Q: And the IC50 [2]?
A: Its IC50 is 1000 to 10000 nM.

Q: What about the EC50 [3] of the same compound?
A: The EC50 was 1000 to 10000 nM.

Q: For `Cn1cc([C@@H]2C[C@H]2c2c(C(=O)O)cnn2-c2cccc(-c3cccc(CN4CCCCC4)c3)c2)nn1` (racemic) [Example 247, 5-(trans-2-(1-Methyl-1H-1,2,3-triazol-4-yl)cyclopropyl)-1-(3′-(piperidin-1-ylmethyl)-[1,1′-biphenyl]-3-yl)-1H-pyrazole-4-carboxylic Acid], which IC50 [1] is on record?
A: The IC50 was 100 to 1000 nM.

Q: What about the IC50 [2] of the same compound?
A: The IC50 was 1000 to 10000 nM.

Q: And the EC50 [3]?
A: Its EC50 is 1000 to 10000 nM.

Q: With `O=C(O)c1cnn(-c2cccc(-c3cccc(-n4ncc5c4C(C4CC4)CC5)c3)c2)c1C1CC1` (stereo not drawn) [Example 207, 5-Cyclopropyl-1-(3′-(6-cyclopropyl-5,6-dihydrocyclopenta[c]pyrazol-1(4H)-yl)-[1,1′-biphenyl]-3-yl)-1H-pyrazole-4-carboxylic Acid] as the compound, how does the IC50 [1] read?
A: Its IC50 is 100 to 1000 nM.

Q: And the IC50 [2]?
A: The IC50 was 1000 to 10000 nM.

Q: And the EC50 [3]?
A: Its EC50 is 1000 to 10000 nM.

Q: How did the IC50 [1] turn out when `Cc1nc(-c2cccc(-c3cccc(-n4ncc(C(=O)O)c4C4CC4)c3)c2)no1` [Example 211, 5-Cyclopropyl-1-(3′-(5-methyl-1,2,4-oxadiazol-3-yl)-[1,1′-biphenyl]-3-yl)-1H-pyrazole-4-carboxylic acid] was run?
A: The IC50 was > 10000 nM.

Q: What about the IC50 [2] of the same compound?
A: The IC50 was 10000 to 100000 nM.

Q: And the EC50 [3]?
A: The EC50 was 1000 to 10000 nM.

Q: With `O=C(O)c1cnn(-c2cccc(-c3cccc(C(=O)N4CCCCC45CC5)c3F)c2)c1C1CC1` [Example 19, 1-[3-(3-{4-Azaspiro[2.5]octane-4-carbonyl}-2-fluorophenyl)phenyl]-5-cyclopropyl-1H-pyrazole-4-carboxylic Acid] as the compound, how does the IC50 [1] read?
A: Its IC50 is 100 to 1000 nM.

Q: And the IC50 [2]?
A: Its IC50 is 1000 to 10000 nM.

Q: What about the EC50 [3] of the same compound?
A: Its EC50 is 1000 to 10000 nM.

Q: Which IC50 [1] does the source give for `CC(C)Oc1cccc(-c2cccc(-n3ncc(C(=O)O)c3C3CC3c3cn(C)nn3)c2)c1F` (stereo not drawn) [Example 181, 1-(2′-Fluoro-3′-isopropoxy-[1,1′-biphenyl]-3-yl)-5-(2-(1-methyl-1H-1,2,3-triazol-4-yl)cyclopropyl)-1H-pyrazole-4-carboxylic acid] here?
A: Its IC50 is 100 to 1000 nM.

Q: And the IC50 [2]?
A: Its IC50 is 1000 to 10000 nM.

Q: What about the EC50 [3] of the same compound?
A: The EC50 was 1000 to 10000 nM.

Q: With `CN(C)C(=O)c1cccc(-c2cccc(-n3ncc(C(=O)O)c3C3CCCC3)c2)c1F` [Example 1, 5-Cyclopentyl-1-{3-[3-(dimethylcarbamoyl)-2-fluorophenyl]phenyl}-1H-pyrazole-4-carboxylic Acid] as the compound, how does the IC50 [1] read?
A: The IC50 was 100 to 1000 nM.

Q: What about the IC50 [2] of the same compound?
A: Its IC50 is 10000 to 100000 nM.

Q: What about the EC50 [3] of the same compound?
A: The EC50 was 1000 to 10000 nM.

Q: For `CCCC1COCCN1C(=O)c1cccc(-c2cccc(-n3ncc(C(=O)O)c3C3CC3)c2)c1F` (stereo not drawn) [Example 27, 5-Cyclopropyl-1-{3-[2-fluoro-3-(3-propylmorpholine-4-carbonyl)phenyl]phenyl}-1H-pyrazole-4-carboxylic Acid], which IC50 [1] is on record?
A: The IC50 was 10 to 100 nM.

Q: What about the IC50 [2] of the same compound?
A: The IC50 was 100 to 1000 nM.

Q: What about the EC50 [3] of the same compound?
A: The EC50 was 1000 to 10000 nM.

Q: What does the source list for `CCC[C@@H]1CCCCN1C(=O)c1cccc(-c2cccc(-n3ncc(C(=O)O)c3C3CC3c3cnoc3C)c2)c1` (stereo partly drawn) [Example 159, 5-(2-(5-Methylisoxazol-4-yl)cyclopropyl)-1-(3′-((R)-2-propylpiperidine-1-carbonyl)-[1,1′-biphenyl]-3-yl)-1H-pyrazole-4-carboxylic Acid]?
A: IC50 [1]: 10 to 100 nM; IC50 [2]: 10 to 100 nM; EC50 ([3]; BEAS-2B, 48 h): 100 to 1000 nM

Q: How did the IC50 [1] turn out when `Cn1cc(C2CC2c2c(C(=O)O)cnn2-c2cccc(-c3cccc(OCC4CCCCO4)c3)c2)nn1` (stereo not drawn) [Example 175, 5-(2-(1-Methyl-1H-1,2,3-triazol-4-yl)cyclopropyl)-1-(3′-((tetrahydro-2H-pyran-2-yl)methoxy)-[1,1′-biphenyl]-3-yl)-1H-pyrazole-4-carboxylic acid] was run?
A: Its IC50 is 10 to 100 nM.

Q: What about the IC50 [2] of the same compound?
A: Its IC50 is 100 to 1000 nM.

Q: And the EC50 [3]?
A: Its EC50 is 1000 to 10000 nM.

Q: Which IC50 [1] does the source give for `CCC[C@@H]1CCCCN1C(=O)c1cc(F)cc(-c2cccc(-n3ncc(C(=O)O)c3C3CC3c3cn(C)nn3)c2)c1` (stereo partly drawn) [Example 198, 1-(3′-Fluoro-5′-((R)-2-propylpiperidine-1-carbonyl)-[1,1′-biphenyl]-3-yl)-5-(2-(1-methyl-1H-1,2,3-triazol-4-yl)cyclopropyl)-1H-pyrazole-4-carboxylic acid] here?
A: The IC50 was 10 to 100 nM.

Q: What about the IC50 [2] of the same compound?
A: The IC50 was 10 to 100 nM.

Q: And the EC50 ([3]; BEAS-2B, 48 h)?
A: The EC50 was 100 to 1000 nM.

Q: With `CC(C)CN(C)C(=O)c1cccc(-c2cccc(-n3ncc(C(=O)O)c3C3CC3)c2)c1F` [Example 4, 5-Cyclopropyl-1-(3-{2-fluoro-3-[methyl(2-methylpropyl)carbamoyl]phenyl}phenyl)-1H-pyrazole-4-carboxylic Acid] as the compound, how does the IC50 [1] read?
A: The IC50 was 100 to 1000 nM.

Q: And the IC50 [2]?
A: Its IC50 is 1000 to 10000 nM.

Q: What about the EC50 [3] of the same compound?
A: Its EC50 is 1000 to 10000 nM.

Q: For `CCn1cc(C2CC2c2c(C(=O)O)cnn2-c2cccc(-c3cccc(C(=O)N(C)C)c3)c2)nn1` (stereo not drawn) [Example 158, 1-(3′-(dimethylcarbamoyl)-[1,1′-biphenyl]-3-yl)-5-(2-(1-ethyl-1H-1,2,3-triazol-4-yl)cyclopropyl)-1H-pyrazole-4-carboxylic Acid], which IC50 [1] is on record?
A: Its IC50 is 100 to 1000 nM.

Q: And the IC50 [2]?
A: Its IC50 is 1000 to 10000 nM.

Q: What about the EC50 [3] of the same compound?
A: Its EC50 is 1000 to 10000 nM.

Q: What does the source list for `CN(C)C(=O)c1cccc(-c2cccc(-n3ncc(C(=O)O)c3C3CC(c4ccccc4)C3)c2)c1` (stereo not drawn) [Example 49, 1-{3-[3-(dimethylcarbamoyl)phenyl]phenyl}-5-(3-phenylcyclobutyl)-1H-pyrazole-4-carboxylic Acid]?
A: IC50 [1]: 100 to 1000 nM; IC50 [2]: 10000 to 100000 nM; EC50 [3]: 1000 to 10000 nM

Q: Which IC50 [1] does the source give for `Cc1ccnn1-c1cccc(-c2cccc(-n3ncc(C(=O)O)c3C3CC3)c2)c1` [Example 36, 5-Cyclopropyl-1-{3-[3-(5-methyl-1H-pyrazol-1-yl)phenyl]phenyl}-1H-pyrazole-4-carboxylic Acid] here?
A: Its IC50 is 100 to 1000 nM.

Q: What about the IC50 [2] of the same compound?
A: Its IC50 is 1000 to 10000 nM.

Q: What about the EC50 ([3]; BEAS-2B, 48 h) of the same compound?
A: The EC50 was 1000 to 10000 nM.

From patent publication US10364256B2 (GlaxoSmithKline Intellectual Property Development Limited, priority 2015, dated 2019)
